# Test results: paper PMC6060383, “Synthesis and pharmacological evaluation of novel isoquinoline N-sulphonylhydrazones designed as ROCK inhibitors” (Journal of Enzyme Inhibition and Medicinal Chemistry, 2018)
# Columns and labels:
# [1] = biological target: T1, IKK-β (Homo sapiens, UniProt O14920); assay: IKK-β inhibition screening; assay type: biochemical; settings: screening concentration of 10 μM; data not shown
# T1 sequence (O14920 1-756): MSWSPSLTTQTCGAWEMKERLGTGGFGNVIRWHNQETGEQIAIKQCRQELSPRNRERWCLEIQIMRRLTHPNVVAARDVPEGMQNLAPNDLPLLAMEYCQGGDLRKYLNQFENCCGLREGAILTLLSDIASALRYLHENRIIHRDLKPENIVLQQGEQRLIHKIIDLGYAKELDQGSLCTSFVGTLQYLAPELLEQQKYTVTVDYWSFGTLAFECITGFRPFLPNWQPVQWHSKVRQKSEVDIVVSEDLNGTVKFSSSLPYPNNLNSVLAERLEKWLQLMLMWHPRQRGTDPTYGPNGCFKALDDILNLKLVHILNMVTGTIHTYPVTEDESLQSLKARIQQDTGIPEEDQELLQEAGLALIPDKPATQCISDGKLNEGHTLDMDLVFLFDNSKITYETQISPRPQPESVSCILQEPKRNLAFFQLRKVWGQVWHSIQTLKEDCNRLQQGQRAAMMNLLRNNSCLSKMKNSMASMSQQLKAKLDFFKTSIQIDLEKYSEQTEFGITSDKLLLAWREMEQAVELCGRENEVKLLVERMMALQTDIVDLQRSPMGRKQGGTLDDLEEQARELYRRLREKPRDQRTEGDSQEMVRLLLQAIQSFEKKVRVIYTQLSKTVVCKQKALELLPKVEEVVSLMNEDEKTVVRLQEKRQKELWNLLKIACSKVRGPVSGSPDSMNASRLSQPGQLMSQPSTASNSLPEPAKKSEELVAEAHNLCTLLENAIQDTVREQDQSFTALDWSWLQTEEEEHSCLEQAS
# Source text: Furthermore, considering that 2 (LASSBio-1524) was used in the structural design of this new family of ROCK inhibitors we also investigated the ability of 5b (LASSBio-2020) and 11 (LASSBio-2065) to inhibit IKK-β.
# [2] = Chemical stability study (pH 2.0 and pH 7.4 buffers); assay type: physicochemical; settings: 37 °C
# Protocol: Two microliters ([…]) of a concentrated solution of the compound under examination (40 mM stock solution solubilized in DMSO) and 248 μL of acid (0.2 M potassium chloride and 0.2 M HCl; pH 2.0) or neutral (phosphate dibasic, pH 7.4) buffer were added to a 2 ml Eppendorf microtube. After vortexing, the mixture was placed in a water bath at 37 °C under vigorous stirring for 0, 30, 60, 120, and 240 min. After each reaction, 248 μL of basic buffer (phosphate buffer, pH 8.4) was added to neutralize the pH of the medium in the experiments using acidic buffer. The compound was extracted using 1 ml of acetonitrile followed by vigorous vortexing and freezing of the aqueous phase (−10 °C). The organic phase was separated, filtered, and analysed using an HPLC-PDA (acetonitrile/water […], 0.05% of TFA).
# Due to the possible chemical instability of the imine functional group present in the N-sulphonylhydrazone framework, the stability profiles of compounds 5b (LASSBio-2020) and 11 (LASSBio-2065) were determined. The study was conducted under two conditions, pH 2.0 and pH 7.4, to mimic the acidic stomach and the neutral plasma environments, respectively. The compounds were examined in the presence of acid (pH 2) and neutral (pH 7.4) buffers with stirring for 240 min at a controlled temperature (37 °C).
smiles,measurement,setting,value
"O=S(=O)(N/N=C/c1ccccc1)c1cccc2cnccc12 [Compound 5b, (E)-N′-benzylideneisoquinoline-5-sulphonohydrazide]",melting point,,172 °C
same,IKK-β inhibition (result in words),[1],none of these N-sulphonylhydrazone derivatives was able to inhibit IKK-β
same,recovery percentage under acidic conditions,"[2]; pH 2, after 30 min of incubation",64%
same,degradation in neutral medium,"[2]; pH 7.4, after 4 h",less than 20%
